Data taken from patent publication US6537545B1, “Use of corneal hardening agents in enzymeorthokeratology” (ISTA Pharmaceuticals, Inc., priority 1998, dated 2003).

Key:
Format in all cases: in vivo
[1] = test system: eyes of myopic human subjects; assay: Mild myopia study, group I: 50 IU hyaluronidase, corrective lenses, 3% glyceraldehyde (Example 9)
From the text: (§1) Given the favorable results obtained in Example 8, an additional study was undertaken to test the safety and efficacy of the method of the present invention using a larger group of subjects. In this study, a group of subjects were selected and randomly separated into three test groups to test the safety and efficacy of using hyaluronidase and a glyceraldehyde solution for treating subjects with sub-optimal visual acuity. Groups one and two received an intrastromal injection of hyaluronidase (50 and 500 IU, respectively), while group three received a control injection of saline.
(§2) Following a two week incubation period after the injection, the three groups were fitted with corrective lenses to optimize the visual acuity of the subjects. The corrective lenses were left in place for a period of time sufficient to alter the shape of the subjects' eyes so as to achieve an optimal visual acuity. This period of time was generally 2 days in length. Once an acceptable visual acuity was achieved, the subjects in the three groups received a topical 3% glyceraldehyde solution in the form of ophthalmic drops four times per day while wearing the corrective lenses. The glyceraldehyde treatment was generally administered for one month. Lens wear occurred from 8 to 12 hours during the day.
(§3) At the end of the treatment period both the lens wear and the glyceraldehyde solution administration was terminated. The general health and visual acuity of the subjects was monitored from 3 to 5 months following treatment termination.
Before beginning the experimental protocol, test subjects were examined initially to establish a baseline from which the future results of the treatment were compared. For each subject a medical history was taken and a detailed examination of the eyes was also performed. The eyes of each subject were tested to determine: refraction cell count, intraocular pressure (IOP), pachymetry, corneal topography and corneal elasticity. A slit-lamp examination was also performed to establish the health of the eye. Also, the presence of any general or ocular discomfort of the subjects was noted.
Following the establishment of a baseline reading, group 1 subjects were administered a single intrastromal injection of 50 IU hyaluronidase prior to the orthokeratology treatment. Following 14 days of incubation, the subjects were fitted with corrective contact lenses for overnight wear. Subjects wore the corrective lenses night and day for a period of two (2) to seven (7) days or until visual 20/20 visual acuity was achieved. Subjects achieving an acceptable visual acuity (approximately 20/20) received an application of the topical 3% glyceraldehyde solution ophthalmic drops four times per day (8:00, 12:00, 16:00, and 20:00) for a period of 1 month in conjunction with daytime lens wear for stabilization. Lens wear lasted for 8 to 12 hours per day. The subjects were examined periodically during the glyceraldehyde treatment to monitor changes in the health of the treated eyes.
(§4) At the end of the treatment period, the stabilizing lens were removed and the administration of the 3% glyceraldehyde solution was terminated. Following termination of the treatment, the subjects were examined immediately after treatment was terminated, once a week for the first four weeks after termination, and then monthly to measure changes in the visual acuity of the treated eyes. The health of the eye was also monitored. Sequelae characterized by the appearance or worsening of serious ocular symptoms or slit-lamp findings observed during these examinations was assessed. The proportions of subjects with such findings were analyzed.

[2] = test system: eyes of myopic human subjects; assay: Mild myopia study, group II: 500 IU hyaluronidase, corrective lenses, 3% glyceraldehyde (Example 9)
From the text: as §1, §2, §3
The subjects of group II were treated as those in group I in preparation for their participation in the study reported here. Before beginning the experimental protocol, test subjects were examined initially to establish a baseline from which the future results of the treatment were compared.
Following the establishment of a baseline reading, group II subjects were fitted with contact lenses and wore the corrective lenses at night for a period of two (2) to seven (7) days or until an acceptable visual acuity (approximately 20/20) was achieved. Group II test subjects received 500 IU of hyaluronidase by injection as compared to the 50 IU of group I. Two groups of subjects received 500 IU of hyaluronidase. The results obtained from the first group are shown in Table IIIA and the results from the second group are shown in Table IIIA and are identified in the table by the notation Gr. VI. There were no meaningful differences in the treatment protocols between these two groups. Subjects achieving an acceptable visual acuity received the topical 3% glyceraldehyde solution in the form of ophthalmic drops four times per day (08:00, 12:00, 16:00, and 20:00) for a period of 1 month in conjunction with daytime lens wear for stabilization. During this period, lens were occurred for approximately 8-12 hours per day and there was no nocturnal lens wear.
The subjects were examined periodically during the glyceraldehyde treatment to monitor changes in the health of the treated eyes.
as §4, with “examinations were” for “examinations was”

[3] = test system: eyes of non-sighted human patients; assay: Safety of enzymatic corneaplasty with hyaluronidase and topical 3% glyceraldehyde in seven non-sighted human patients (Example 6); settings: 500 IU hyaluronidase, lenses, 3% glyceraldehyde 2 drops 4 times per day, 28 days
Method: The methodology used in this study was similar to that discussed in Example 4. Subjects were injected intrastromally with 500 IU of a hyaluronidase solution on the first day of the study following an initial eye examination. The injected enzyme was allowed to digest the corneal substrate for seven (7) days. At that time contact lenses were fitted to the treated eyes of the subjects. The subjects wore the lenses for another seven days at which time the topical application of the 3% glyceraldehyde solution was first applied. The 3% glyceraldehyde solution was applied at 2 drops, 4 times per day for the following 28 days. At the end of the 28 days the contact lenses were removed and the glyceraldehyde treatments were ceased.
The subjects were examined and data was recorded throughout the treatment period and following the cessation of treatment. […] The only apparent negative effects of the treatment were incidents of edema and minor manifestations of SPK. These negative manifestations resolved favorably for most patients.

SMILES: O=CC(O)CO (stereo not shown) [glyceraldehyde]
- overall effect on correction of visual acuity ([1]; glyceraldehyde treatment with injection of 50 IU of hyaluronidase): effective in facilitating the correction
- visual acuity at follow-up after end of treatment ([1]; subject 001, 5-month follow up, baseline 20/80): 20/40
- visual acuity at follow-up after end of treatment ([1]; subject 002, 4-month follow-up, baseline 20/300): 20/125
- visual acuity at follow-up after end of treatment ([1]; subject 007, 3-month follow-up, baseline 20/200): 20/50
- visual acuity at follow-up after end of treatment ([1]; subject 009, 3-month follow-up, baseline 20/200): 20/63
- visual acuity at follow-up ([1]; subject 010R, time not stated, baseline 20/80): 20/20
- visual acuity at follow-up after end of treatment ([1]; subject 015, 3-month follow-up, baseline 20/80): 20/25
- visual acuity at follow-up ([1]; subject 022R, 3-week followup, baseline 20/62): 20/80
- visual acuity at follow-up ([1]; subject 024R, time not stated, baseline 20/100): 20/40
- visual acuity at follow-up ([1]; subject 028, 2-month point, baseline 20/300): 20/125
- visual acuity at follow-up ([1]; subject 029, 2-month point, baseline 20/200): 20/40
- visual acuity at follow-up ([1]; subject 033, 2-month point, baseline 20/300): 20/125
- UVA at follow-up after lens removal ([2]; Gr. VI subject 101, one month time point, baseline 20/200): 20/60
- UVA at follow-up after lens removal ([2]; Gr. VI subject 102, two month date, baseline 20/160): 20/20
- UVA at follow-up after lens removal ([2]; Gr. VI subject 103, two month date, baseline 20/160): 20/50
- UVA at follow-up after lens removal ([2]; Gr. VI subject 104, one month time point, baseline 20/200): 20/80
- UVA at follow-up after lens removal ([2]; Gr. VI subject 105, two month date, baseline 20/200): 20/80
- UVA at follow-up after lens removal ([2]; Gr. VI subject 106, two month date, baseline 20/160): 20/63
- UVA at follow-up after lens removal ([2]; Gr. VI subject 107, one month time point, baseline 20/60): 20/20
- overall effect on retention of orthokeratology benefits ([2]; combination of hyaluronidase (500 IU) and glyceraldehyde treatment): effective at retaining the benefits of orthokeratology
- UVA at follow-up after lens removal ([2]; subject 00S/031, three month point, baseline 20/200): 20/50
- UVA at follow-up after lens removal ([2]; subject 004, four month point, baseline 20/160): 20/50
- UVA at follow-up after lens removal ([2]; subject 013, three month point, baseline 20/100): 20/40
- UVA at follow-up after lens removal ([2]; subject 017, three month point, baseline 20/50): 20/25
- UVA at follow-up after lens removal ([2]; subject 018, three month point, baseline 20/80): 20/25
- UVA at follow-up after lens removal ([2]; subject 019, three month point, baseline 20/70): 20/15
- UVA at follow-up after lens removal ([2]; subject 023, two months, baseline 20/70): 20/20
- UVA at follow-up after lens removal ([2]; subject 026, two months, baseline 20/50): 20/25
- UVA at follow-up after lens removal ([2]; subject 030, two months, baseline 20/300): 20/100
- UVA at follow-up after lens removal ([2]; subject P10/008, three month point, baseline 20/400): 20/80
- negative effects of enzyme injection or glyceraldehyde application [3]: no significant negative effects
